Values joined by “and” are separate entries in the source; they are usually repeats but may differ in a detail not shown here. Equal values may be shown once.
Legend:
[1] = system: leup operon (leupeptin BGC) promoter in K. oxytoca ATCC 8724; assay: GFP-based transcriptional reporter for the leup operon; format: cell-based, Klebsiella oxytoca; settings: carbohydrate screen, M9 + casamino acid + 0.4% indicated sugar, 30 °C, 24 h; for GFP fluorescence, GFP Strain + Media: leup GFP reporter strain; for GFP fluorescence, WT + Media: wildtype K. oxytoca without reporter (background)
Source text: We previously examined a panel of 84 clinical K. oxytoca isolates (including recently renamed Klebsiella michiganensis isolates) for the presence of either the leup operon or npsB, an NRPS of the tilimycin/tilivalline gene cluster. […] While the roles of tilivalline and tilimycin in hemorrhagic colitis are well studied[8],[9], the operon for leupeptin biosynthesis is “silent” in K. oxytoca under typical laboratory culture conditions (i.e., leupeptin production is undetectable). Therefore, our study commenced by exploring growth conditions required to trigger leupeptin biosynthesis in K. oxytoca. To achieve this, we generated a green fluorescent protein (GFP)-based reporter system to monitor leup transcription in K. oxytoca ATCC 8724 (recently renamed as Klebsiella michiganensis (ATCC 8724), Fig. 1a). We utilized λ-red recombineering techniques[38] to replace the first biosynthetic gene (leupA) of the leupeptin BGC with a GFP-spectinomycin resistance cassette. […] Consequently, conditions that elicit transcription of the leupeptin BGC can be monitored by GFP fluorescence intensity.
5 mL of the leupeptin reporter strain was cultured aerobically in 10 g/L of LB (Becton Dickinson), yeast extract, GAM (HiMedia Laboratories), horse liver extract (HiMedia Laboratories), malt extract (VWR), meat extract (HiMedia Laboratories), YPD (Dot Scienticifc), brain heart infusion (Becton Dickinson), porcine mucin (Sigma-Aldrich, M1778), clostridial (Becton Dickinson), TSB (VWR), or casamino acid supplemented (5 g/L, VWR) M9 minimal salts (MP Biomedicals) at 30 °C for 24 h at 250 rpm. Cultures were lysed via sonication, centrifuged, and 150 µL of the supernatants were aliquoted into black well clear bottom 96 well plates. GFP fluorescence measurements were performed on a BioTek Synergy H1 plate reader with an excitation wavelength of 488 nm and an emission wavelength of 525 nm. For the carbohydrate screen, the leupeptin reporter strain was cultured in M9 minimal medium (MPbio) supplemented with casamino acid (5 g/L, VWR) and 0.4% indicated sugar aerobically at 30 °C for 24 h at 250 rpm.

[2] = target: T1, HRH2 (Homo sapiens, UniProt P25021); assay: PRESTO-Tango GPCR screen and dose-response; format: cell-based; settings: replicate wells
T1 construct: expressed in transfected cells; host or cells: HTLA cells (HEK293 line stably expressing β-arrestin-TEV and tTA-Luciferase)
Method: (§1) The PRESTO-Tango analyses were performed as previously published. Briefly, HTLA cells, a HEK293 cell line that stably expresses β-arrestin-TEV and tTA-Luciferase (a kind gift from Gilad Barnea, Brown University), were plated in 96-well tissue culture plates (Eppendorf) in DMEM containing 10% FBS and 1% Penicillin/Streptomycin. One day after plating (after reaching approximately 90% confluence), 200 ng per well GPCR-Tango plasmids[37] in 20 μL DMEM were individually mixed with 400 ng polyethylenimine (Polysciences) in an equal volume of DMEM and incubated for 20 min at room temperature before adding the transfection mixture to the HTLA cells. 16-24 h after transfection, medium was replaced with 180 μL fresh DMEM containing 1% Penicillin/Streptomycin and 10 mM HEPES and 20 μL of 3 or 3-Homo to reach a final concentration of 100 μM. Supernatants were aspirated 20 h after stimulation and 50 μl per well of Bright-Glo solution (Promega) diluted 20-fold with PBS containing 20 mM HEPES was added into each well. After 15 min incubation at room temperature, luminescence was quantified using a Spectramax i3x microplate reader (Molecular Devices). Activation fold for each sample was calculated by dividing relative luminescence units (RLU) for each condition by RLUs from PBS control. Dose response curves of each chemical were performed in a similar way with varying the ligand concentration from 10^−4 M to 10^−15 M.

[3] = target: T2, HRH1 (Homo sapiens, UniProt P35367); assay: PRESTO-Tango GPCR screen and dose-response; format: cell-based; settings: replicate wells
T2 construct: expressed in transfected cells; host or cells: HTLA cells (HEK293 line stably expressing β-arrestin-TEV and tTA-Luciferase)
Method: as §1

[4] = target: T3, histamine receptor H4 (HRH4) (Homo sapiens, UniProt Q9H3N8); assay: PRESTO-Tango GPCR screen and dose-response; format: cell-based; settings: replicate wells
T3 construct: expressed in transfected cells; host or cells: HTLA cells (HEK293 line stably expressing β-arrestin-TEV and tTA-Luciferase)
Method: as §1

T1 sequence (P25021 whole entry): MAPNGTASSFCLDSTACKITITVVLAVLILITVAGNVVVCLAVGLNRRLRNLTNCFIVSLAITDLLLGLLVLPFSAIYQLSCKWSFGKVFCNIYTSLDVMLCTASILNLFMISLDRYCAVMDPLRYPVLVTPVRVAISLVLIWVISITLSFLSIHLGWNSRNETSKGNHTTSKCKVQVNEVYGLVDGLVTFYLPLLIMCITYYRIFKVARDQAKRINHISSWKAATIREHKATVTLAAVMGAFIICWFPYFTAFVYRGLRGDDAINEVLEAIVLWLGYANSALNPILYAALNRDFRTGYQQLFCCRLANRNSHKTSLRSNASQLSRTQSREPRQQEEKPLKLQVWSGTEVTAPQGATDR
T2 sequence (P35367 whole entry): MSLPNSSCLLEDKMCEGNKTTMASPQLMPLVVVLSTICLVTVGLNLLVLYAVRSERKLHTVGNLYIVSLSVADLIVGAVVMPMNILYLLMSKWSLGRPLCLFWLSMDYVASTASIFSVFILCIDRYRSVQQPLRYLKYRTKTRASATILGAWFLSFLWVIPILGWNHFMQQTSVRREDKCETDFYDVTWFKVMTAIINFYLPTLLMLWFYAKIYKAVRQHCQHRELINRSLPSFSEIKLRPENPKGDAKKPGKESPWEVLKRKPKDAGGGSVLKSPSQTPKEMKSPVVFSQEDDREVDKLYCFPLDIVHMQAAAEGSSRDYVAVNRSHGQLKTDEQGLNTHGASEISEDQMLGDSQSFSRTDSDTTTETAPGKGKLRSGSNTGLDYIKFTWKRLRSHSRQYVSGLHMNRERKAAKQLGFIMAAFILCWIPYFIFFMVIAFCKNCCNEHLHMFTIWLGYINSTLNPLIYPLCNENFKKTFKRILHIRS
T3 sequence (Q9H3N8 whole entry): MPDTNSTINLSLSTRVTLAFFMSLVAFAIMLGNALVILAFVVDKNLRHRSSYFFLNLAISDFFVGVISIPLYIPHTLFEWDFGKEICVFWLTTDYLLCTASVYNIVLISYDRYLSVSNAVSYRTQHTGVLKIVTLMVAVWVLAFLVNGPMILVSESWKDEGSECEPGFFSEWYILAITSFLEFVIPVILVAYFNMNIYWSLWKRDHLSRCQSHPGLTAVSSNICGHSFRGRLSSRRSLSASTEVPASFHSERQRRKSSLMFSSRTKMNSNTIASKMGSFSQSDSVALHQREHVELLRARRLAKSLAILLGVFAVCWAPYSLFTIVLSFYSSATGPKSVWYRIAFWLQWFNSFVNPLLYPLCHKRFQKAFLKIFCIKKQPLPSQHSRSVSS

## O=C[C@H](O)[C@@H](O)[C@H](O)CO [Xylose]
[1]
  GFP fluorescence, GFP Strain + Media: 9892 RFU
  GFP fluorescence, WT + Media: 5418 RFU

## O[C@@H]1[C@@H](O)[C@@H](O)CO[C@H]1O [Arabinose]
[1]
  GFP fluorescence, GFP Strain + Media: 9484 RFU
  GFP fluorescence, WT + Media: 6365 RFU

## NCCc1c[nH]cn1 [Histamine, histamine, reference compound]
[2]; Log(10)Conc (M) -4
  HRH2 dose-response raw reporter signal (Fig. 5b source data): 3877 and 3933 and 3726
[2]; Log(10)Conc (M) -5
  HRH2 dose-response raw reporter signal (Fig. 5b source data): 699 and 758 and 693
[2]; Log(10)Conc (M) -6
  HRH2 dose-response raw reporter signal (Fig. 5b source data): 144 and 156 and 139
[2]; Log(10)Conc (M) -7
  HRH2 dose-response raw reporter signal (Fig. 5b source data): 56 and 88 (2×)
[2]; Log(10)Conc (M) -8
  HRH2 dose-response raw reporter signal (Fig. 5b source data): 94 and 91 and 50
[2]; Log(10)Conc (M) -9
  HRH2 dose-response raw reporter signal (Fig. 5b source data): 62 and 56 and 65
[2]; Log(10)Conc (M) -10
  HRH2 dose-response raw reporter signal (Fig. 5b source data): 59 and 68 and 77
[2]; Log(10)Conc (M) -11
  HRH2 dose-response raw reporter signal (Fig. 5b source data): 53 and 68 and 38
[2]; Log(10)Conc (M) -12
  HRH2 dose-response raw reporter signal (Fig. 5b source data): 50 and 56 and 88
[2]; Log(10)Conc (M) -13
  HRH2 dose-response raw reporter signal (Fig. 5b source data): 44 and 77 and 100
[2]; Log(10)Conc (M) -14
  HRH2 dose-response raw reporter signal (Fig. 5b source data): 44 and 83 and 77
[2]; Log(10)Conc (M) -15
  HRH2 dose-response raw reporter signal (Fig. 5b source data): 32 and 47 and 38
[3]; Log(10)Conc (M) -4
  HRH1 dose-response raw reporter signal (Fig. 5b source data): 81577 and 82137
[3]; Log(10)Conc (M) -5
  HRH1 dose-response raw reporter signal (Fig. 5b source data): 78216 and 78255
[3]; Log(10)Conc (M) -6
  HRH1 dose-response raw reporter signal (Fig. 5b source data): 75259 and 78673
[3]; Log(10)Conc (M) -7
  HRH1 dose-response raw reporter signal (Fig. 5b source data): 76949 and 75622
[3]; Log(10)Conc (M) -8
  HRH1 dose-response raw reporter signal (Fig. 5b source data): 67606 and 69585
[3]; Log(10)Conc (M) -9
  HRH1 dose-response raw reporter signal (Fig. 5b source data): 52047 and 52194
[3]; Log(10)Conc (M) -10
  HRH1 dose-response raw reporter signal (Fig. 5b source data): 45399 and 45284
[3]; Log(10)Conc (M) -11
  HRH1 dose-response raw reporter signal (Fig. 5b source data): 44193 and 43739
[3]; Log(10)Conc (M) -12
  HRH1 dose-response raw reporter signal (Fig. 5b source data): 45001 and 44441
[3]; Log(10)Conc (M) -13
  HRH1 dose-response raw reporter signal (Fig. 5b source data): 46307 and 47693
[3]; Log(10)Conc (M) -14
  HRH1 dose-response raw reporter signal (Fig. 5b source data): 46469 and 45317
[3]; Log(10)Conc (M) -15
  HRH1 dose-response raw reporter signal (Fig. 5b source data): 42643 and 42151
[4]; Log(10)Conc (M) -5
  HRH4 dose-response raw reporter signal (Fig. 5b source data): 20161 and 21099
[4]; Log(10)Conc (M) -6
  HRH4 dose-response raw reporter signal (Fig. 5b source data): 15058 and 15677
[4]; Log(10)Conc (M) -7
  HRH4 dose-response raw reporter signal (Fig. 5b source data): 3788 and 3862
[4]; Log(10)Conc (M) -8
  HRH4 dose-response raw reporter signal (Fig. 5b source data): 887 and 1023
[4]; Log(10)Conc (M) -9
  HRH4 dose-response raw reporter signal (Fig. 5b source data): 590 and 625
[4]; Log(10)Conc (M) -10
  HRH4 dose-response raw reporter signal (Fig. 5b source data): 537 and 513
[4]; Log(10)Conc (M) -11
  HRH4 dose-response raw reporter signal (Fig. 5b source data): 475
[4]; Log(10)Conc (M) -12
  HRH4 dose-response raw reporter signal (Fig. 5b source data): 433 and 407
[4]; Log(10)Conc (M) -13
  HRH4 dose-response raw reporter signal (Fig. 5b source data): 377 and 419
[4]; Log(10)Conc (M) -14
  HRH4 dose-response raw reporter signal (Fig. 5b source data): 545 and 448
[4]; Log(10)Conc (M) -15
  HRH4 dose-response raw reporter signal (Fig. 5b source data): 245
